Laboratory results taken from patent US11331328B2, “Compositions and methods for inhibiting antiapoptotic Bcl-2 proteins as anti-aging agents” (priority 2014, dated 2022).

Columns and labels:
[1] = test system: IR-induced senescent WI-38 cells (SC); test: Cell viability (PI flow cytometry), LD50 in IR-induced senescent WI-38 cells; type: cell-based, human
Description: Mouse embryonic fibroblasts (MEF) were isolated from mouse embryos as described^1. All cells were cultured in a complete medium (CM) (Dulbecco's Modified Eagle Medium supplemented with 10% fetal bovine serum [FBS], 100 U/ml penicillin, and 100 μg/ml streptomycin [all from Atlanta Biologicals, Norcross, Ga., and USA]) in a humidified incubator at 37° C. and 5% CO2. Low passages of WI-38 cells (<25), IMR-90 (<25), REC cells (<25) and MEF (<3) were used as non-senescent controls or for induction of senescence to avoid replicative senescence. […] To induce senescence by expression of oncogenic Ras (Ras^V12), WI-38 cells were infected with the retroviruses pBabe-H-Ras or pBabe-puro (control) (Addgene, Cambridge, Mass., UAS)^2, 3. […] Senescent cells were maintained in culture for a few days, changing the culture medium every 3 days until use. For in vitro cell culture experiments, we usually repeated the experiments for at least three times to ensure the reproducibility of the data. In addition, the repeats of the experiments for three times will allow us to obtain 3 independent observations for statistical analysis.
Flow cytometry: Non-senescent and senescent cells were seeded into wells of 24- or 48-well at about 70% of confluence. […] Both quiescent non-senescent cells and permanently growth arrested senescent cells were treated with vehicle (0.1% DMSO or PBS) or increasing concentrations of the compounds listed in Table 1 for various durations. […] After incubated with propidium iodide (PI 100 ng/ml) in PBS at room temperature for 1 min, cells were centrifuged at 1200 rpm for 6 min and then resuspended in PBS with 2% of FBS for analysis by a BD LSR II flow cytometer (BD Biosciences, San Jose, Calif., USA). Viable cells (PI^− cells) were numerated by flow cytometry at a constant flow rate and calculated as a percentage of control cells treated with vehicle using the formula: percentage of control=(Ndrug/NC)×100, where Ndrug and NC represent the absolute number of PI^− viable cells of drug-treated and vehicle-treated cells, respectively.
MTT (3-[4,5-dimethylthiazol-2-yl]-2,5 diphenyl tetrazolium bromide) assay: Cells were harvested, washed and resuspended in CM and added to wells of 24- or 48-well plates as described above. […] After 4 h at 37° C., the formazan was solubilized by lysing the cells with 300 μl of DMSO. Absorbance of formazan was measured at 595 nm using a Microplate Reader (BioTek, Winooski, Vt., USA). Cell viability was calculated in the method as previously described^4.
Trypan blue exclusion assay: Cells were harvested, washed and resuspended in CM and added to wells of a 6-well plate as described above. […] Living cells stained negative for trypan blue and were counted under light microscopy.
Briefly, Probit (set as y) was determined by looking up their correspondence to the % responded in Finney's table. The log of the compound concentrations was used as x. By fitting a line of regression, we produce the formula y=ax+b.

[2] = test system: senescent WI38 cells induced by expression of oncogenic Ras (Ras-SC); test: Cell viability, LD50 in oncogenic Ras-induced senescent WI-38 cells; type: cell-based, human; conditions: Table 2
Description: (§1) Human WI-38 fibroblasts (WI38 cells, #CCL-75™), human IMR-90 fibroblasts (IMR90 cells, #CCL-186™), human renal epithelial cells (REC cells, #PCS-400-012™) were obtained from ACTT (Manassas, Va., USA). Mouse embryonic fibroblasts (MEF) were isolated from mouse embryos as described^1. All cells were cultured in a complete medium (CM) (Dulbecco's Modified Eagle Medium supplemented with 10% fetal bovine serum [FBS], 100 U/ml penicillin, and 100 μg/ml streptomycin [all from Atlanta Biologicals, Norcross, Ga., and USA]) in a humidified incubator at 37° C. and 5% CO2. Low passages of WI-38 cells (<25), IMR-90 (<25), REC cells (<25) and MEF (<3) were used as non-senescent controls or for induction of senescence to avoid replicative senescence. To induce replicative senescence, WI-38 cells were subcultivated until cell division ceased after about 38 passages or 60 population doublings (FIG. 5)^2. […]
Flow cytometry: Non-senescent and senescent cells were seeded into wells of 24- or 48-well at about 70% of confluence. […] Viable cells (PI^− cells) were numerated by flow cytometry at a constant flow rate and calculated as a percentage of control cells treated with vehicle using the formula: percentage of control=(Ndrug/NC)×100, where Ndrug and NC represent the absolute number of PI^− viable cells of drug-treated and vehicle-treated cells, respectively. […]

[3] = test system: bone marrow HSCs; test: Single HSC culture clonogenic activity in vitro; type: cell-based, mouse; conditions: 1.25 μM ABT263
Description: Freshly prepared medium was added every 3 days, Two weeks later, the numbers of cells produced by each HSC were counted.

[4] = test system: human renal epithelial cells (REC); test: Cell viability, IR-SC vs NC, renal epithelial cells; type: cell-based; conditions: increasing concentrations, 72 h
Description: as §1
(§2) Flow cytometry: Non-senescent and senescent cells were seeded into wells of 24- or 48-well at about 70% of confluence. […] Viable cells (PI^− cells) were numerated by flow cytometry at a constant flow rate and calculated as a percentage of control cells treated with vehicle using the formula: percentage of control=(Ndrug/NC)×100, where Ndrug and NC represent the absolute number of PI^− viable cells of drug-treated and vehicle-treated cells, respectively.

[5] = test system: human IMR-90 fibroblasts; test: Cell viability, IR-SC vs NC, IMR-90 fibroblasts; type: cell-based; conditions: increasing concentrations, 72 h
Description: as §1, §2

Structure (SMILES): CC1(C)CCC(c2ccc(Cl)cc2)=C(CN2CCN(c3ccc(C(=O)NS(=O)(=O)c4ccc(N[C@H](CCN5CCOCC5)CSc5ccccc5)c(S(=O)(=O)C(F)(F)F)c4)cc3)CC2)C1 [ABT263, navitoclax]
- IC50 ([1]; Homo sapiens, WI-38 fibroblasts, IR-induced senescent, LD50 by Probit Analysis, read-out: LD50 (μM) for senescent cells (SC)): 0.61 µM
- LD50 ([1]; Table 2, IR-SC WI38 cells): 0.61 µM
- viable cells by MTT assay and trypan blue exclusion test ([1]; senescent WI-38, increasing concentrations, 72 h): can dose-dependently kill senescent WI-38 fibroblasts
- SCs killed ([1]; ~24 h, 1.25 μM ABT263, IR-SC WI-38): 70-80%
- LD50 [2]: 0.62 µM
- clonogenicity of BM HSCs in vitro ([3]; HSCs from control unirradiated mice): had little effect on the clonogenicity of BM HSCs from control unirradiated mice
- clonogenicity of BM HSCs in vitro ([3]; HSCs from irradiated mice): markedly reduced the clonogenicity of BM HSCs from irradiated mice
- viable cells, IR-SC vs NC [4]: kills IR-induced senescent cells (IR-SC) but not non-senescent cells (NC)
- viable cells, IR-SC vs NC [5]: kills IR-induced senescent cells (IR-SC) but not non-senescent cells (NC)
